# Target: T1, Caspase-3 (Homo sapiens, UniProt P42574)
# T1 construct: the Caspase-2 and Caspase-3 are human recombinant active enzymes; purchased R&D Systems 707-C3-010/CF
# T1 sequence (P42574 29-175 limits assumed): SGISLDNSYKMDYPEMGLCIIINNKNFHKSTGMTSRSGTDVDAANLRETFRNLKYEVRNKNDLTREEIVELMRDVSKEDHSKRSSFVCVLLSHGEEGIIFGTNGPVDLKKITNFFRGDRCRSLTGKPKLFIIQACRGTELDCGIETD
# T1 sequence (P42574 176-277 limits assumed): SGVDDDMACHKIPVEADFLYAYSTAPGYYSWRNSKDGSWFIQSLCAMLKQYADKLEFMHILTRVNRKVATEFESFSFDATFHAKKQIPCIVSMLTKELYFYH
# Test: Caspase-3 inhibition assay for irreversible inhibitors (kinact/KI, continuous method)
# Assay type: biochemical
# Conditions: human recombinant Caspase-3 0.5 nM, 37° C.
# Description: The efficiency of the comparative compound Δ2Me-TRP601, that is an already known group II Caspase inhibitor (inhibitor of Caspase-2, Caspase-3 and Caspase-7), has been assessed by a similar protocol described in Chauvier et al., 2011 Cell Death Dis 2011, 2:e203.
# In this example, the Caspase-2 and Caspase-3 are human recombinant active enzymes that are respectively provided by Enzo Life® (ALX-201-057-U100) and R&D Systems® (707-C3-010/CF).
# Caspase-2 is used at a final concentration of 0.1 nM in a “Caspase-2 buffer” containing 20 mM HEPES (pH 7.4), 5 mM DTT, 2 mM EDTA, 0.1% CHAPS and 800 mM succinate. […]
# The peptide substrates used for the enzymatic activity measurements are Ac-DEVD-AMC and Ac-VDVAD-AMC commercialized by EnzoLife® (respectively referenced ALX-260-031-M005 and ALX-260-060-M005). […] The releasing of AMC enables to follow the enzymatic activity in fluorescence unit RFU over time in a 96-wells microplate.
# The fluorescence values are measured at 37° C. with a spectrofluorometer with a microplate reader BMG FLUOstar OPTIMA. […]
# The inhibitory properties of the tested compounds are evaluated by the determination of the kinact/KI ratio regarding either Caspase-2 or Caspase-3 wherein: • kinact is the maximal inactivation rate constant, and • KI is the dissociation constant according to: […]
# The activities of the enzyme are measured between 45 and 60 minutes. […]
smiles,measurement,value
"CC(C)[C@H](NC(=O)c1ccc2ccccc2n1)C(=O)N[C@@H](CC(=O)O)C(=O)N[C@H](C(=O)N1CC[C@H](CC(C)(C)C)[C@H]1C(=O)N[C@@H](CC(=O)O)C(=O)COc1c(F)cccc1F)C(C)C (single isomer, unassigned) [Compound 2 enantiomer a]",k3/KI Casp3,2 625 M^−1 · s^−1
